Earlier results, collected in patent US6987129B2, “Compounds and methods for the treatment of urogenital disorders” (Cellegy Pharmaceuticals, Inc., priority 2001, dated 2006).

Columns and labels:
women with FSAD = settings: human, in vivo
[1] = in vivo

Row | SMILES | efficacy in a larger clinical trial including other patients suffering from FSAD (women with FSAD) | efficacy in women with spinal cord injury and in women using antidepressants such as serotonin reuptake inhibitors (women with FSAD) | excretion [1] | metabolism by the liver [1]
1 | CCCc1nn(C)c2c(=O)[nH]c(-c3cc(S(=O)(=O)N4CCN(C)CC4)ccc3OCC)nc12 [Sildenafil] | failed to show efficacy | demonstrated efficacy | – | –
2 | Cn1c(=O)c2c(ncn2CC(O)CO)n(C)c1=O (stereo not shown) [dyphylline] | – | – | excreted unchanged by the kidneys | not metabolized by the liver
